Counter-ions that a name gives are not always drawn. Like-named read-outs stand apart in the source and are kept apart here.
Biological target: T1, leukotriene induced contraction of guinea pig tracheal tissues (LTD4) (Cavia porcellus, UniProt Q2NNR5)
T1 construct: from tissue; host or cells: guinea pig (adult male albino Hartley strain) tracheal spiral strips
T1 sequence (Q2NNR5 1-340): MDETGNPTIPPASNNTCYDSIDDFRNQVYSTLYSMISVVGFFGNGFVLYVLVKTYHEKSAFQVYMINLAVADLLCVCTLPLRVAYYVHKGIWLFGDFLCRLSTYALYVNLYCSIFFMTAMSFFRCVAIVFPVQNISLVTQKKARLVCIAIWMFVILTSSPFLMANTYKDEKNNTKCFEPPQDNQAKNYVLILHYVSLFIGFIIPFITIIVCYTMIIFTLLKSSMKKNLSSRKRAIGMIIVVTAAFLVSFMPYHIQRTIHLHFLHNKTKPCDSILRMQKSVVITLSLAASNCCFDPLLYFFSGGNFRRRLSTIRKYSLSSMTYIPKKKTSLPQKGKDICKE
Assay: leukotriene (LTD4) induced contraction of guinea pig tracheal spiral strips in vitro, leukotriene antagonist activity
Assay type: cell-based, guinea pig (adult male albino Hartley strain)
Conditions: for In Vitro -Log KB: 30 min
Protocol: The leukotriene antagonist activity of the compounds of this invention is measured by the ability of the compounds to inhibit the leukotriene induced contraction of guinea pig tracheal tissues in vitro. The following methodology was employed:
In vitro: Guinea pig (adult male albino Hartley strain) tracheal spiral strips of approximate dimensions 2 to 3 mm cross-sectional width and 3.5 cm length were bathed in modified Krebs buffer in jacketed 10 ml tissue bath and continuously aerated with 95% O2 /5% CO2. The tissues were connected via silk suture to force displacement transducers for recording isometric tension. The tissues were equilibrated for 1 hr., pretreated for 15 minutes with meclofenamic acid (1 μM) to remove intrinsic prostaglandin responses, and then pretreated for an additional 30 minutes with either the test compound or vehicle control. A cumulative concentration-response curve for LTD4 on triplicate tissues was generated by successive increases in the bath concentration of the LTD4. In order to minimize intertissue variability, the contractions elicited by LTD4 were standardized as a percentage of the maximum response obtained to a reference agonist, carbachol […].
Calculations: The averages of the triplicate LTD4 concentration-response curves both in the presence and absence of the test compound were plotted on log graph paper. The concentration of LTD4 needed to elicit 30% of the contraction elicited by carbachol was measured and defined as the EC30. The -log KB value for the test compound was determined by the following equations:
2. KB = concentration of test compound/(X-1)

[1] = antagonism of LTD4 contraction, guinea pig trachea, EC30 based (30% of carbachol contraction), meclofenamic acid 1 μM, test compound 30 min pretreatment, KB = concentration of test compound/(X-1), read-out: In Vitro -Log KB (converted)
[2] = antagonism of LTD4 contraction, guinea pig trachea, EC30 based (30% of carbachol contraction), meclofenamic acid 1 μM, test compound 30 min pretreatment, KB = concentration of test compound/(X-1)
[3] = method as for the table (LTD4, guinea pig trachea), read-out: -log KB value (converted)

Compound	Kb [1]	also measured
CCCCCCCCCCCC/C=C\[C@H](Sc1nc(C)c(C(=O)O)n1C)[C@H](O)CCC(=O)O (relative stereo) [4-Hydroxy-5-(1,4-dimethyl-5-carboxy-2-imidazolylthio)-6(Z)-nonadecenoic acid]	0.126 µM	–
CCCCCCCCCCCC/C=C\[C@H](Sc1nc(CC(=O)O)cn1C)[C@H](O)CCC(=O)O (relative stereo) [4-Hydroxy-5-(1-methyl-4-carboxymethyl-2-imidazolylthio)-6(Z)-nonadecenoic acid]	0.794 µM	–
CCCCCCCCCCCC/C=C\[C@H](Sc1nc(C)c(CC(N)=O)n1C)[C@H](O)CCC(=O)O (relative stereo) [4-Hydroxy-5-(5-Aminocarbonylmethyl-1,4-dimethyl-2-imidazolylthio)-6(Z)-nonadecenoic Acid]	0.631 µM	–
CCCCCCCCCCCC/C=C\[C@H](Sc1nc(CCC)c(C(=O)O)n1C)[C@H](O)CCC(=O)O (relative stereo) [4-Hydroxy-5-(5-carboxy-1-methyl-4-propyl-2-imidazolylthio)-6(Z)-nonadecenoic Acid]	0.316 µM	–
CCCCCCCCCCCC/C=C\[C@H](Sc1nc(CC)c(C(=O)O)n1C)[C@H](O)CCC(=O)O (relative stereo) [4-Hydroxy-5-(5-carboxy-4-ethyl-1-methyl-2-imidazolylthio)-6-(Z)-nonadecenoic Acid]	0.2 µM	–
CCCCCCCCCCCC/C=C\[C@H](Sc1nc(C(C)C)c(C(=O)O)n1C)[C@H](O)CCC(=O)O (relative stereo) [4-Hydroxy-5-(5-carboxy-4-isopropyl-1-methyl-2-imidazolylthio)-6(Z)-nonadecenoic Acid]	1.26 µM	–
CCCCCCCCCCCC/C=C\[C@H](Sc1nc(C)c(CC(=O)O)n1C)[C@H](O)CCC(=O)O (relative stereo) [4-Hydroxy-5-(5-carboxymethyl-1,4-dimethyl-2-imidazolylthio)-6(Z)-nonadecenoic Acid]	0.398 µM	–
CCCCCCCCCCCC/C=C\[C@H](Sc1nc(C)c(CCC(=O)O)n1C)[C@H](O)CCC(=O)O (relative stereo) [4-Hydroxy-5-[5-(2-carboxyethyl)-1,4-dimethyl-2-imidazolylthio]-6(Z)-nonadecenoic Acid]	1.26 µM	–
C=CCn1ccnc1S[C@@H](/C=C\CCCCCCCCCCCC)[C@H](O)CCC(=O)O (relative stereo) [Formula (III), R1 CH2 =CHCH2, R2 H, R3 H, 4-Hydroxy-5-(1-allyl-2-imidazolylthio)-6(Z)-nonadecenoic acid]	5.01 µM	–
CCCCCCCCCCCC/C=C\[C@H](Sc1nccn1CC)[C@H](O)CCC(=O)O (relative stereo) [Formula (III), R1 CH3 CH2, R2 H, R3 H, 4-Hydroxy-5-(1-ethyl-2-imidazolylthio)-6(Z)-nonadecenoic acid, sodium salt]	5.01 µM	–
CCCCCCCCCCCC/C=C\[C@H](Sc1ncc(C(=O)O)n1C)[C@H](O)CCC(=O)O (relative stereo) [Formula (III), R1 CH3, R2 --CO2 H, R3 H, 4-Hydroxy-5-(1-methyl-5-carboxy-2-imidazolylthio)-6(Z)-nonadecenoic acid]	0.158 µM	–
CCCCCCCCCCCC/C=C\[C@H](Sc1ncc(C(N)=O)n1C)[C@H](O)CCC(=O)O (relative stereo) [Formula (III), R1 CH3, R2 --CONH2, R3 H, 4-Hydroxy-5-(1-methyl-5-carboxamido-2-imidazolylthio)-6(Z)-nonadecenoic acid]	3.98 µM	–
CCCCCCCCCCCC/C=C\[C@H](Sc1nc(C)c(C)n1C)[C@H](O)CCC(=O)O (relative stereo) [Formula (III), R1 CH3, R2 CH3, R3 CH3, 4-Hydroxy-5-(1,4,5-trimethyl-2-imidazolylthio)-6(Z)-nonadecenoic acid]	2.51 µM	–
CCCCCCCCCCCC/C=C\[C@H](Sc1nccn1C)[C@H](O)CCC(=O)O (relative stereo) [Formula (III), R1 CH3, R2 H, R3 H, 4-Hydroxy-5-(1-methyl-2-imidazolylthio)-6(Z)-nonadecenoic acid]	1.26 µM	–
CCCCCCCCCCCC/C=C\[C@H](Sc1nc(C(=O)O)c[nH]1)[C@H](O)CCC(=O)O (relative stereo) [Formula (III), R1 H, R2 --CO2 H, R3 H, 4-Hydroxy-5-[4(5)-carboxy-2-imidazolylthio]-6(Z)-nonadecenoate acid]	2 µM	–
CCCCCCCCCCCC/C=C\[C@H](Sc1nccn1C)[C@H](O)CCCC(=O)O (relative stereo) [Formula (IV), R1 CH3, R2 H, R3 H, 5-Hydroxy-6-(1-methyl-2-imidazolylthio)-7(Z)-eicosenoic acid]	1 µM	–
CCCCCCCCCCCC/C=C\C(Sc1nc(C)c(C(=O)O)n1C)C(O)CCC(=O)O (single isomer, unassigned) [Formula (III), R1 ^(a) CH3, R2 --CO2 H, R3 CH3 (first isomer line), 4-Hydroxy-5-(1,4-dimethyl-5-carboxy-2-imidazolylthio)-6(Z)-nonadecenoic acid]	–	In Vitro -Log KB [2]: 6.9
CCCCCCCCCCCC/C=C\C(Sc1nc(C)c(C(=O)O)n1C)C(O)CCC(=O)O (single isomer, unassigned) [Formula (III), R1 ^(a) CH3, R2 --CO2 H, R3 CH3 (second isomer line), 4-Hydroxy-5-(1,4-dimethyl-5-carboxy-2-imidazolylthio)-6(Z)-nonadecenoic acid]	–	In Vitro -Log KB [2]: 6.8
CCCCCCCCCCCCC#CC(Sc1nc(C)c(C(=O)O)n1C)C(O)CCC(=O)O (stereo not drawn) [4-Hydroxy-5-(1,4-dimethyl-5-carboxy-2-imidazolylthio)-6-nonadecynoic acid]	1.58 µM	–
CCCCCCCCCCCC/C=C\C(CCCC(=O)O)Sc1ncc(C(=O)O)n1C (stereo not drawn) [5-(1-methyl-5-carboxy-2-imidazolylthio)-6(Z)-nonadecenoic acid]	0.316 µM	–
CC(C)=CCCCCCCCCC/C=C\C(Sc1nc(C)c(C(=O)O)n1C)C(O)CCC(=O)O (stereo not drawn) [Example 25, 4-Hydroxy-5-(5-carboxy-1,4-dimethyl-2-imidazolylthio)-18-methyl-6(Z),17-nonadecadienoic Acid]	–	Kb [3]: 0.0316 µM
Cc1nc(SC(/C=C\CCCCCCCCc2ccccc2)C(O)CCC(=O)O)n(C)c1C(=O)O (stereo not drawn) [Example 26, 4-Hydroxy-5-(5-carboxy-1,4-dimethyl-2-imidazolylthio)-15-phenyl-6(Z)-pentadecenoic Acid]	–	Kb [3]: 0.251 µM
CCCCCCCCCCCC/C=C\C(Sc1ncn(C)c1C(=O)O)C(O)CCC(=O)O (stereo not drawn) [Formula (V), R4 CH3, R5 H, R6 --CO2 H, 4-Hydroxy-5-(1-methyl-5-carboxy-4-imidazolylthio)-6(Z)-nonadecenoic acid]	0.2 µM	–
CCCCCCCCCCCC/C=C\C(Sc1cn(C)cn1)C(O)CCC(=O)O (stereo not drawn) [Formula (V), R4 ^(b) CH3, R5 H, R6 H, 4-Hydroxy-5-(1-methyl-4-imidazolylthio)-6(Z)-nonadecenoic acid, sodium salt]	2 µM	–

— patent US4769386A, “Imidazolylthioalkenoic acids and -alkenols and leukotriene antagonistic composition containing them” (Smithkline Beckman Corporation, priority 1986, dated 1988)
